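The compound was tested at five concentrations on cells cultured in 96-well plates, with a 48-hour exposure period. GI50 = concentration required for 50% inhibition of growth.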 Active and inactive are the calls of the source. Cut-off read from the data, not from the text of the source: active = GI50 up to about 1.1 µM and inactive = higher.
How the values were obtained:
Test in all cases: NCI tumour cell line growth inhibition, 48 h
[1] = tested on: OVCAR-8
[2] = tested on: SF-295
[3] = tested on: HOP-18
[4] = tested on: DLD-1
[5] = tested on: SF-539
[6] = tested on: HCT-116
[7] = tested on: CAKI-1
[8] = tested on: TK-10
[9] = tested on: COLO 205
[10] = tested on: RXF 393
[11] = tested on: NCI-H522
[12] = tested on: IGROV-1
[13] = tested on: HT-29
[14] = tested on: DMS-273
[15] = tested on: OVCAR-5
[16] = tested on: SK-MEL-5
[17] = tested on: K562
[18] = tested on: UO-31
[19] = tested on: OVCAR-4
[20] = tested on: NCI-H460
[21] = tested on: EKVX
[22] = tested on: SN12C
[23] = tested on: U-251
[24] = tested on: HOP-62
[25] = tested on: UACC-257
[26] = tested on: 786-0
[27] = tested on: SNB-75
[28] = tested on: HCC 2998
[29] = tested on: SK-MEL-2
[30] = tested on: ACHN
[31] = tested on: UACC-62
[32] = tested on: SNB-78
[33] = tested on: HL-60
[34] = tested on: KM-20L2
[35] = tested on: MOLT-4
[36] = tested on: DMS-114
[37] = tested on: CCRF-CEM
[38] = tested on: SR
[39] = tested on: HOP-92
[40] = tested on: A549
[41] = tested on: LXFL 529
[42] = tested on: NCI-H226
[43] = tested on: SNB-19
[44] = tested on: LOX IMVI
[45] = tested on: M14
[46] = tested on: SK-MEL-28
[47] = tested on: RPMI-8226
[48] = tested on: A498
[49] = tested on: SW-620
[50] = tested on: SF-268
[51] = tested on: Malme-3M
[52] = tested on: HCT-15
[53] = tested on: KM12
[54] = tested on: OVCAR-3
[55] = tested on: SK-OV-3
[56] = tested on: M19-MEL
[57] = tested on: NCI-H23
[58] = tested on: XF498

For `COC(=O)c1cc(C(=O)OC)c(CC(=O)C(=O)NC2C3CC4CC(C3)CC2C4)nc1CC(=O)C(=O)NC1C2CC3CC(C2)CC1C3` (stereo unspecified), the GI50 [1] was > 100 µM (inactive), the GI50 [2] was > 100 µM (inactive) and the GI50 [3] was > 100 µM (inactive). For the same compound, the GI50 [4] was > 100 µM (inactive), the GI50 [5] was > 100 µM (inactive) and the GI50 [6] was > 100 µM (inactive). For the same compound, the GI50 [7] was > 100 µM (inactive), the GI50 [8] was > 100 µM (inactive) and the GI50 [9] was > 100 µM (inactive). For the same compound, the GI50 [10] was > 100 µM (inactive), the GI50 [11] was > 100 µM (inactive) and the GI50 [12] was > 100 µM (inactive). The GI50 [13] was > 100 µM (inactive), the GI50 [14] was > 100 µM (inactive) and the GI50 [15] was > 100 µM (inactive). The GI50 [16] was > 100 µM (inactive), the GI50 [17] was > 100 µM (inactive) and the GI50 [18] was > 100 µM (inactive). For the same compound, the GI50 [19] was > 100 µM (inactive), the GI50 [20] was > 100 µM (inactive) and the GI50 [21] was > 100 µM (inactive). For the same compound, the GI50 [22] was > 100 µM (inactive), the GI50 [23] was > 100 µM (inactive) and the GI50 [24] was > 100 µM (inactive). The GI50 [25] was > 100 µM (inactive), the GI50 [26] was > 100 µM (inactive) and the GI50 [27] was > 100 µM (inactive). For the same compound, the GI50 [28] was > 100 µM (inactive), the GI50 [29] was > 100 µM (inactive) and the GI50 [30] was > 100 µM (inactive). The GI50 [31] was > 100 µM (inactive), the GI50 [32] was > 100 µM (inactive) and the GI50 [33] was > 100 µM (inactive). The GI50 [34] was > 100 µM (inactive), the GI50 [35] was 37.3 µM (inactive) and the GI50 [36] was > 100 µM (inactive). For the same compound, the GI50 [37] was > 100 µM (inactive), the GI50 [38] was 8.69 µM (inactive) and the GI50 [39] was 74.6 µM (inactive). For the same compound, the GI50 [40] was > 100 µM (inactive), the GI50 [41] was > 100 µM (inactive) and the GI50 [42] was > 100 µM (inactive). For the same compound, the GI50 [43] was > 100 µM (inactive), the GI50 [44] was > 100 µM (inactive) and the GI50 [45] was > 100 µM (inactive). For the same compound, the GI50 [46] was > 100 µM (inactive), the GI50 [47] was > 100 µM (inactive) and the GI50 [48] was > 100 µM (inactive). For the same compound, the GI50 [49] was > 100 µM (inactive), the GI50 [50] was > 100 µM (inactive) and the GI50 [51] was > 100 µM (inactive). The GI50 [52] was greater than 100 µM, the GI50 [53] was > 100 µM (inactive) and the GI50 [54] was > 100 µM (inactive). For the same compound, the GI50 [55] was > 100 µM (inactive), the GI50 [56] was > 100 µM (inactive) and the GI50 [57] was > 100 µM (inactive).

`CC1=NN(C(=O)Cc2ccccc2)C(=O)/C1=C\c1ccccc1O` was tested, and the GI50 [1] was > 100 µM (inactive), the GI50 [2] was > 100 µM (inactive) and the GI50 [4] was > 100 µM (inactive). The GI50 [5] was > 100 µM (inactive), the GI50 [6] was > 100 µM (inactive) and the GI50 [7] was > 100 µM (inactive). The GI50 [8] was > 100 µM (inactive), the GI50 [9] was > 100 µM (inactive) and the GI50 [10] was > 100 µM (inactive). The GI50 [11] was > 100 µM (inactive), the GI50 [12] was > 100 µM (inactive) and the GI50 [13] was > 100 µM (inactive). The GI50 [15] was > 100 µM (inactive), the GI50 [16] was > 100 µM (inactive) and the GI50 [17] was > 100 µM (inactive). For the same compound, the GI50 [18] was > 100 µM (inactive), the GI50 [19] was > 100 µM (inactive) and the GI50 [58] was > 100 µM (inactive). The GI50 [20] was > 100 µM (inactive), the GI50 [21] was > 100 µM (inactive) and the GI50 [22] was > 100 µM (inactive). For the same compound, the GI50 [23] was > 100 µM (inactive), the GI50 [24] was > 100 µM (inactive) and the GI50 [25] was > 100 µM (inactive). The GI50 [26] was > 100 µM (inactive), the GI50 [28] was > 100 µM (inactive) and the GI50 [29] was > 100 µM (inactive). The GI50 [30] was > 100 µM (inactive), the GI50 [31] was > 100 µM (inactive) and the GI50 [32] was > 100 µM (inactive). The GI50 [33] was > 100 µM (inactive), the GI50 [34] was > 100 µM (inactive) and the GI50 [35] was > 100 µM (inactive). The GI50 [36] was > 100 µM (inactive), the GI50 [37] was > 100 µM (inactive) and the GI50 [39] was > 100 µM (inactive). The GI50 [40] was > 100 µM (inactive), the GI50 [41] was > 100 µM (inactive) and the GI50 [42] was > 100 µM (inactive). The GI50 [43] was > 100 µM (inactive), the GI50 [44] was > 100 µM (inactive) and the GI50 [45] was > 100 µM (inactive). The GI50 [46] was > 100 µM (inactive), the GI50 [47] was > 100 µM (inactive) and the GI50 [48] was > 100 µM (inactive). The GI50 [49] was > 100 µM (inactive), the GI50 [50] was > 100 µM (inactive) and the GI50 [51] was > 100 µM (inactive). For the same compound, the GI50 [52] was greater than 100 µM, the GI50 [53] was > 100 µM (inactive) and the GI50 [54] was > 100 µM (inactive). For the same compound, the GI50 [55] was > 100 µM (inactive), the GI50 [56] was > 100 µM (inactive) and the GI50 [57] was > 100 µM (inactive).
